Test results from patent US6087401A, “Cyclopentenones, process for preparing the same, and the use thereof” (Takara Shuzo Co., Ltd., priority 1996, dated 2000).
Converted amounts (≈) assume the structure as drawn. Like-named read-outs stand apart in the source and are kept apart here.

Key:
[1] = test system: Staphylococcus aureus 3A (NCTC 8319); assay: growth turbidity, microorganism (16); format: cell-based; conditions: 8 h, control 243
Description: (§1) They were testing microorganism (13): Escherichia coli HB101 (ATCC 33694); testing microorganism (14): Salmonella typhimurium LT-2 (ATCC 27106); testing microorganism (15): Pseudomonas aeruginosa (IFO 3080); testing microorganism (16): Staphylococcus aureus 3A (NCTC 8319); testing microorganism (17): Bacillus subtilis (IFO 3034); and testing microorganism (18): Streptococcus mutans (GS5; stored at National Institute of Health).
(§2) The testing microorganisms were subjected to a seed culture overnight in an L-broth (1% tryptone, 0.5% yeast extract and […]; pH 7.0). The seed culture (5 μl) was inoculated to a medium to which 25-200 μg/ml of cyclopentenone was added to 5 ml of L-both and also to a medium to which nothing was added and a shake incubation was conducted at 37° C. to measure the growth. At the initiation of the incubation and also at eight hours thereafter, turbidity of the culture was measured using a Fuji Digital Turbidimeter (sold from Fuji Kogyo KK; manufactured by Akiyama Denki Seisakusho) under the condition that the adjusted scale was 82.3 and the growth of the tested microorganism was measured from the value (growth turbidity) obtained by deducting the turbidity at the initiation of incubation from that after eight hours. Incidentally, in the case of the testing microorganism (18), a brain heart infusion was used instead of L-broth.

[2] = test system: Bacillus subtilis (IFO 3034); assay: growth turbidity, microorganism (17); format: cell-based; conditions: 8 h, control 267
Description: as §1, §2

[3] = test system: Vibrio parahaemolyticus 4387-61 and Vibrio parahaemolyticus T4144-1; assay: antibacterial and bactericidal action to Vibrio; format: cell-based
Protocol: (1) Vibrio parahaemolyticus 4387-61 or Vibrio parahaemolyticus T4144-1 (both stored at National Institute of Hygienic Sciences) was inoculated to make 10^6 cells/ml to a trypto-soya bouillon medium (manufactured by Nissui) containing […], 3.13 or 1.56 μg/ml of the cyclopentenone and a stationary incubation was conducted at 37° C. for 24 hours.
The culture (50 μl) where no growth of the microorganism was noted was spread on 20 ml of a trypto-soya bouillon agar medium containing no cyclopentenone and incubation was conducted at 37° C. for 24 hours. The result was that, in any of the strains, no growth of microorganism was noted on the agar medium on which a fraction (to which 50 μg/ml or more cyclopentenone was added) was spread.

[4] = 25 days
[5] = test system: Mouse leukemia P-388; assay: life-prolonging effect, leukemia P-388; conditions: 10 mg/kg/day i.p., five days
[6] = stability of the cyclopentenone in solution (TLC)

O=C1C=CC(O)C1O (stereo not shown) [the cyclopentenone, 4,5-dihydroxy-2-cyclopenten-1-one]
Growth Turbidity ([1]; 25 μg/ml): 203 | Growth Turbidity ([1]; 50 μg/ml): 158 | Growth Turbidity ([1]; 100 μg/ml): 0 | Growth Turbidity ([1]; 200 μg/ml): 0 | Growth Turbidity ([2]; 25 μg/ml): 145 | Growth Turbidity ([2]; 50 μg/ml): 9 | Growth Turbidity ([2]; 100 μg/ml): 0 | Growth Turbidity ([2]; 200 μg/ml): 0 | MIC ([3]; 37° C., 24 hours, both strains, read-out: concentration showing antibacterial action (no growth)): 12.5 µg/mL (≈ 110 µM) | MBC ([3]; 24 h, read-out: concentration showing bactericidal action): 50 µg/mL (≈ 438 µM) | storage stability (amount of the cyclopentenone) ([4]; 4° C. and -20° C.): almost stable | storage stability (amount of the cyclopentenone) ([4]; 37° C.): some decrease | life-prolonging rate [5]: 306.1% | average surviving days ([5]; control 10.3 days): 31.4 days | stability ([6]; 25 mM in 10 mM tris (pH 10), room temperature, immediately after dissolution): rapid decomposition | stability ([6]; in water, 121° C., 30 minutes): most of the cyclopentenone was left nondecomposed
